Literature values as cited in patent publication US12121514B2, “Nonselective metabotropic glutamate receptor activators for treatment of attention deficit disorder and 22Q syndrome” (THE CHILDREN'S HOSPITAL OF PHILADELPHIA, priority 2015, dated 2024).

How the values were obtained:
[1] = tested on: pediatric ADHD subjects; conditions: cited from earlier work
[2] = tested on: group I and group II/III mGluRs; conditions: in vitro studies; cited from earlier work
[3] = tested on: adenylate cyclase activity through group I, II and III mGluRs; conditions: cited from earlier work

Row | SMILES | ADHD symptoms compared to a placebo control [1] | stimulation of mGluRs [2] | adenylate cyclase activity through group I mGluRs [3] | adenylate cyclase activity through group II and III mGluRs [3]
1 | NC(=O)CN1CCCC1=O [piracetam] | increase ADHD symptoms |  |  | 
2 | O=C1CC[C@H](C(=O)N2CCCCC2)N1 [Fasoracetam, fasoracetam] |  | can stimulate both group I and group II/III mGluRs | may stimulate adenylate cyclase activity | may also inhibit adenylate cyclase activity
